We go through five compounds from patent US20250332180A1, “CANNABINOIDS AND IL-15 ACTIVATE NK CELLS” (The Regents of the University of California, priority 2022, published 2025).

The subject of assay [1] is PL-12 tumor cells. The assay is described as follows: Microscopy of morphology and viability. The format is cell-based, human. The note with it: CDDP 50 μg/mL, 24 hours. On the procedure: (§1) MP2 and PL-12 tumor cells were treated with CDDP (50 μg/mL) and different concentrations of WIN 55,212-2 for 24 hours before the microscopic images were taken. Scale bar=50 μm.
Assay [2] relates to MP2 tumor cells. As to the kind of experiment: Microscopy of morphology and viability. Format: cell-based, human. The note with it: CDDP 50 μg/mL, 24 hours. The protocol:
as §1

Assay [3] relates to OSCCs. The assay is described as follows: Cell count of viable cells (Trypan Blue, light microscope). The format is cell-based, human. The note with it: CDDP 50 μg/mL, 24 hours. An excerpt: The number of viable cells was counted under light microscope using Trypan Blue staining. Compiled data from three independent experiments performed as shown.
The number of viable cells was counted under light microscope using Trypan Blue staining (Sigma, MO, USA).

Assay [4] has as its system OSCCs. The assay is described as follows: Microscopy of morphology and viability. Format: cell-based, human. The note with it: CDDP 50 μg/mL, 24 h. On the procedure:
(§2) Chemical structure of WIN 55,212-2 (FIG. 7A). […] OSCCs and OSCSCs were treated with CDDP (50 μg/mL) and different concentrations of WIN 55,212-2 for 24 hours before the microscopic images were taken. Scale bar=50 μm (FIG. 7B).

For assay [5], the system named is OSCSCs. As to the kind of experiment: Microscopy of morphology and viability. The note with it: CDDP 50 μg/mL, 24 h. The format is cell-based, human. The protocol:
as §2

In assay [6] the test system is PL-12 tumor cells. As to the kind of experiment: Cell death assay (PI staining, flow cytometry). The format is cell-based, human. To be noted: CDDP. In general terms: In flow cytometry, cells or beads pass a laser one at a time.
Assay [7] relates to OSCCs. As to the kind of experiment: Cell death assay (PI staining, flow cytometry). The format is cell-based, human. The note with it: CDDP 50 μg/mL, 24 hours. The protocol:
No differences between untreated tumor cells and those treated with the DMSO vehicle alone in cell count or the amount of cell death in OSCCs and OSCSCs. […] Proportion of the live cells that had lost forward and side scatter were determined indicating decreased viability of the cells. In addition, the numbers of viable cells were determined after PI staining followed by flow cytometric analysis (FIG. 2A). OSCC tumor cells were treated as in FIG. 2A and the cells were analyzed by flow cytometry to determine the proportion of the live cells that had lost forward and side scatter indicating decreased viability of the cells (FIG. 2B) and the numbers of viable OSCC tumor cells were determined after PI staining followed by flow cytometric analysis (FIG. 2C). […] PI staining was used to determine the cell death by flow cytometry. One of four representative experiment is shown in (FIG. 2D). The compiled data of paired OSCCs and OSCSCs at the same concentration of WIN 55,212-2 treatment from four experiments is shown in (FIG. 2E). Four experiments were compiled and the % cell death of tumor cells by various WIN 55-212,2 concentrations (10, 25, 50 and 100 μM) were compared to the untreated control for both OSCC (FIG. 2F) and OSCSC (FIG. 2G). […] Non-linear regression was used to fit the curve of the % cell death induced by WIN 55-212,2 in various concentrations (10, 25, 50 and 100 μM) for both OSCC and OSCSC. […] The differences were clear within each independent experiment.
PI staining was used to determine the cell death by flow cytometry. Compiled data from four independent experiments performed is shown.

Assay [8] deals with anti-proliferative effects of radiation therapy. To be noted: previously reported; cited from earlier work.
The test system of assay [9] is IFN-γ secretion. The assay is described as follows: IFN-γ secretion of immune cells in humanized BLT mice (ELISA, ELISpot). Format: in vivo. The note with it: hu-BLT mice, every 2 days for 3 weeks; WIN 55,212-2 2 mg/kg IP; IL-15 5 μg/mice IP. The protocol:
(§3) Humanized BLT mice (hu-BLT; human-bone marrow/liver/thymus) were fed with, AJ2 (5×10^9 CFU/mice, every 2 days, Oral administration), WIN 55,212-2 (2 mg/kg, every 2 days, IP) and/or IL-15 (5 μg/mice, every 2 days, IP). After 3 weeks of treatment, immune cells were collected from peripheral blood, bone marrow and spleen, and CD3+ T cells were isolated from splenocytes with EasySep™ Human CD3 positive selection kit II (StemCell Tech.). PBMCs (0.5×10^6 cells) obtained from the peripheral blood were treated with IL-2 (1000 U/ml) and/or anti-CD16 antibody (BioLegend) (3 μg/ml) for 3 days, after which the cells were counted and different numbers of E:T ratios were used for the assessment of cytotoxicity using 4-hr Chromium release assay (FIG. 1A and FIG. 1B). The percentage specific cytotoxicity was calculated using the following formula (% cytotoxicity=(Experimental cpm/spontaneous cpm)/(total cpm−spontaneous cpm)) and the lytic unit 30 (Lu30/10^6) was calculated by using the inverse of the number of effector cells needed to lyse 30% of tumor target cells×100. Killing per % NK cells was determined by dividing the total Lytic unit 30 by the percentage of NK cells in each sample (FIG. 1A and FIG. 1B). PBMCs (0.5×10^6 cells) obtained from the blood were treated with IL-2 (1000 U/ml) and/or anti-CD16 antibody (BioLegend) (3 μg/ml) for 24 hours, after which the supernatants were collected to measure IFN-g secretion using ELISA (BioLegend, San Diego) (FIG. 1C). ELISpot was used to determine the IFN-γ spots in PBMC (FIG. 1D), bone marrow (FIG. 1E), spleen (FIG. 1F) and CD3+ T cells (FIG. 1G).
Humanized BLT mice (hu-BLT; human-bone marrow/liver/thymus) were fed with, AJ2 (5×10^9 CFU/mice, every 2 days, Oral administration), WIN 55,212-2 (2 mg/kg, every 2 days, IP) and/or IL-15 (5 μg/mice, every 2 days, IP). After 3 weeks of treatment, immune cells were collected from peripheral blood, bone marrow and spleen, and CD3+ T cells were isolated from splenocytes with EasySep™ Human CD3 positive selection kit II (StemCell Tech.). PBMCs (0.5×10^6 cells) obtained from the peripheral blood were treated with IL-2 (1000 U/ml) and/or anti-CD16 antibody (BioLegend) (3 μg/ml) for 3 days, after which the cells were counted and different numbers of E:T ratios were used for the assessment of cytotoxicity using 4-hr Chromium release assay (FIG. 6A and FIG. 6B). The percentage specific cytotoxicity was calculated using the following formula (% cytotoxicity=(Experimental cpm/spontaneous cpm)/(total cpm−spontaneous cpm)) and the lytic unit 30 (Lu30/10^6) was calculated by using the inverse of the number of effector cells needed to lyse 30% of tumor target cells×100. Killing per % NK cells was determined by dividing the total Lytic unit 30 by the percentage of NK cells in each sample (FIG. 6A and FIG. 6B). PBMCs (0.5×10^6 cells) obtained from the blood were treated with IL-2 (1000 U/ml) and/or anti-CD16 antibody (BioLegend) (3 μg/ml) for 24 hours, after which the supernatants were collected to measure IFN-g secretion using ELISA (BioLegend, San Diego) (FIG. 6C). ELISpot was used to determine the IFN-γ spots in PBMC (FIG. 6D), bone marrow (FIG. 6E), spleen (FIG. 6F) and CD3+ T cells (FIG. 6G).
In general terms: In an ELISA, binding on a coated surface is turned into a signal by an enzyme label.

Assay [10] deals with NK cells. The assay is described as follows: NK cell cytotoxicity in humanized BLT mice (4-hr Chromium release assay). Format: in vivo. The note with it: hu-BLT mice, every 2 days for 3 weeks; WIN 55,212-2 2 mg/kg IP; IL-15 5 μg/mice IP; preliminary experiments. On the procedure: as §3, with “PBMCs (0.5×10^6 cells) obtained from the blood were treated with IL-2 (1000 U/ml) and/or anti-CD16 antibody (BioLegend) (3 μg/ml) for 24 hours, after which the supernatants were collected to measure IFN-g secretion using ELISA (BioLegend, San Diego) (FIG. 1C). ELISpot was used to determine the IFN-γ spots in PBMC (FIG. 1D), bone marrow (FIG. 1E), spleen (FIG. 1F) and CD3+ T cells (FIG. 1G).” left out

Regarding `N.N.[Cl][Pt][Cl]` [CDDP, cis-diamminedichloridoplatinum(II)], the morphology result in assay [1] was “affected both PL-12 and MP2 tumors morphologically”; in assay [2] it was “affected both PL-12 and MP2 tumors morphologically”. In addition, in assay [3], the “inhibition of cell growth, OSCCs compared with OSCSCs” value is recorded as “inhibit cell growth of OSCCs more than those seen with OSCSCs”. Also, the morphology and attachment entry was “loss of morphology, and the majority were detached from the plates” in assay [4]; “the majority of these cells were still attached to the cell culture plate” in assay [5]. Moreover, the “cell death, PL-12 compared with MP2” value in assay [6] (compiled data) is “similar”; in assay [6] (representative experiment), “higher in PL-12”. For the same compound, the “cell death, OSCCs compared with OSCSCs” value in [7] is on record as “triggered more cell death in OSCCs when compared to OSCSCs”.
Regarding `CCCCCCC(C)(C)c1cc(O)c2c(c1)OC(C)(C)C1CCC(=O)CC21` (stereo not shown) [nabilone], the “enhancement of anti-proliferative effects of radiation therapy” value (shortened to “enhancement”) in assay [8] is on record as “failed to enhance”.
As to “IL-15: IL-15, given by intraperitoneal injection 5 μg/mice”, the “IFN-γ secretion (ELISA, PBMCs)” value in assay [9] is “increased”. For the same compound, the “cytotoxic function of NK cells in PBMC” value in [10] is listed as “increased the NK cytotoxicity”.
For `C=C(C)[C@@H]1CCC(C)=C[C@H]1c1c(O)cc(CCCCC)cc1O` [CBD], the “enhancement” value in [8] is “failed to enhance”.
`CCCCCc1cc(O)c2c(c1)OC(C)(C)[C@@H]1CCC(C)=C[C@@H]21` [THC, tetrahydrocannabinol]: in assay [8], the “enhancement” value is listed as “failed to enhance”.
